Values after ≈ are worked out from the molar mass of the structure shown.
How the values were obtained:
[1] = Cytotoxicity against human H9 cells after 4 days by coulter counter; type: cell-based; settings: human, H9 cells; read-out: TI
[2] = tested on: Human immunodeficiency virus 1; assay: Antiviral activity against HIV1 3B infected in H9 cells assessed as inhibition of viral replication by p24 antigen ELISA; type: functional, organism-based; settings: Human immunodeficiency virus 1, 3B, H9; read-out: EC50
[3] = Therapeutic index, ratio of IC50 for human H9 cells to EC50 for HIV 3B; type: cell-based; settings: read-out: TI
A549 = assay: Cytotoxicity against human A549 cells after 3 days by sulforhodamine B assay; type: functional, cell-based; settings: A549, 72 h
1A9 = assay: Cytotoxicity against human 1A9 cells after 3 days by sulforhodamine B assay; type: functional, cell-based; settings: 1A9, 72 h
A-431 = assay: Cytotoxicity against human A431 cells after 3 days by sulforhodamine B assay; type: functional, cell-based; settings: A-431, 72 h
HCT-8 = assay: Cytotoxicity against human HCT8 cells after 3 days by sulforhodamine B assay; type: functional, cell-based; settings: HCT-8, 72 h
PC-3 = assay: Cytotoxicity against human PC3 cells after 3 days by sulforhodamine B assay; type: functional, cell-based; settings: PC-3, 72 h
KB [4] = assay: Cytotoxicity against human KB cells after 3 days by sulforhodamine B assay; type: functional, cell-based; settings: 72 h
[5] = Cytotoxicity against human KBVIN cells after 3 days by sulforhodamine B assay; type: functional, cell-based; settings: 72 h
KB [6] = assay: Cytotoxicity against human KB cells after 72 hrs by MTT assay; type: functional, cell-based; settings: for EC50: read-out: ED50 (the source's name)
[7] = Cytotoxicity against human KB1 cells after 72 hrs by MTT assay; type: functional, cell-based; settings: KB1, 72 h
[8] = Cytotoxicity against human KB-7d cells after 72 hrs by MTT assay; type: functional, cell-based; settings: KB7D; for EC50: read-out: ED50 (the source's name)
KB [9] = assay: Cytotoxicity against human etoposide-resistant KB cells after 72 hrs by MTT assay
[10] = tested on: Human immunodeficiency virus 1; assay: Antiviral activity against HIV1 infected in human H9 cells after 4 days by p24 antigen ELISA; type: functional, organism-based; settings: Human immunodeficiency virus 1, H9, 96 h
[11] = Therapeutic index, ratio of IC50 for human H9 cells to EC50 for HIV1; type: cell-based; settings: read-out: TI
[12] = Inhibition of tubulin polymerization

For COc1cc(=O)oc2c3c(ccc12)OC(C)(C)[C@H](OC(=O)C12CCC(C)(C(=O)O1)C2(C)C)[C@@H]3OC(=O)C12CCC(C)(C(=O)O1)C2(C)C (some centres undefined), the selectivity ratio at 96 h [1] was > 15 and the EC50 [2] was 50 nM.

Work on COc1c(C)c(O)c(C(=O)/C=C(\O)c2ccccc2)c(O)c1C=O yielded an EC50 [2] of 67 nM and a selectivity ratio [3] of 489.

Compound CC(=O)O[C@@H]1[C@H](OC(=O)CC(C)C)c2c(ccc3ccc(=O)oc23)OC1(C)C [SUKSDORFIN] has an EC50 [2] of 1300 nM and a selectivity ratio [3] of 40.

C[C@H]1O[C@H](O[C@H]2CC[C@]3(C=O)[C@H]4CC[C@]5(C)[C@@H](c6ccc(=O)oc6)CC[C@]5(O)[C@@H]4CC[C@]3(O)C2)[C@H](O)[C@@H](O)[C@@H]1O [KALANCHOSIDE A] gave an IC50 (A549) of 0.0005 µg/mL (≈ 0.000889 µM), an IC50 (1A9) of 0.0008 µg/mL (≈ 0.00142 µM) and an IC50 (A-431) of 0.007 µg/mL (≈ 0.0124 µM). It also gave an IC50 (HCT-8) of 0.006 µg/mL (≈ 0.0107 µM), an IC50 (PC-3) of 0.002 µg/mL (≈ 0.00355 µM) and an IC50 (KB [4]) of 0.003 µg/mL (≈ 0.00533 µM). The IC50 [5] was 0.003 µg/mL (≈ 0.00533 µM).

COc1cc([C@@H]2c3cc4c(cc3[C@@H](Nc3ccc(N)cc3)[C@H]3COC(=O)[C@H]23)OCO4)cc(OC)c1O gave an IC50 (KB [6]) of 590 nM, an IC50 [7] of 3500 nM and an IC50 [8] of 7600 nM. It also gave an IC50 (KB [9]) of 2000 nM.

With C=C(C)[C@@H]1CC[C@]2(C(=O)O)CC[C@]3(C)[C@H](CC[C@@H]4[C@@]5(C)CC[C@H](OC(=O)C(C)(C)CC(=O)O)C(C)(C)[C@@H]5CC[C@]43C)[C@@H]12 the IC50 [10] was 15900 nM and the selectivity ratio [11] was 6.7.

Compound COc1cc2c(c(OC)c1OC)-c1ccc(SC)cc1C(=O)CC2 has an IC50 [12] of 500 nM.

For COc1cc([C@@H]2c3cc4c(cc3[C@@H](Nc3ccc(C#N)cc3)[C@H]3COC(=O)[C@H]23)OCO4)cc(OC)c1O, the IC50 (KB [6]) was 610 nM, the IC50 [7] was 2700 nM and the IC50 [8] was 5000 nM. The IC50 (KB [9]) was 4000 nM.

In the case of COc1cc([C@@H]2c3cc4c(cc3[C@@H](Nc3ccc(C(=O)N[C@@H](C)C(=O)OCc5ccccc5)cc3)[C@H]3COC(=O)[C@H]23)OCO4)cc(OC)c1O, the EC50 (KB [6]) is reported as 0.5 µg/mL and the EC50 [8] is reported as 0.25 µg/mL.

CC(C)=CCC/C(C)=C/CC[C@@]1(C)C=Cc2c(cc(C)c(C(=O)O)c2O)O1 [DAURICHROMENIC ACID] showed an EC50 [2] of 15 nM and a selectivity ratio [3] of 3710.

Work on O=C(C[C@H](Cc1ccc(O)c(O)c1)C(=O)O)C1=Cc2cc(O)c(O)cc2[C@H](c2ccc(O)c(O)c2)[C@H]1CC[C@H](Cc1ccc(O)c(O)c1)C(=O)O yielded an EC50 [2] of 1900 nM and a selectivity ratio [3] of 33.3.

COc1cc([C@@H]2c3cc4c(cc3[C@@H](O[C@@H]3O[C@@H]5CO[C@@H](C)O[C@H]5[C@H](O)[C@H]3O)[C@H]3COC(=O)[C@H]23)OCO4)cc(OC)c1O [ETOPOSIDE] showed an IC50 (KB [6]) of 600 nM, an EC50 (KB [6]) of 200 nM and an IC50 [7] of 34800 nM. For the same compound, the IC50 [8] was 77500 nM, the EC50 [8] was 25000 nM and the IC50 (KB [9]) was 28700 nM.

Work on COc1cc2c(c(OC)c1OC)-c1ccc(SC)c(=O)cc1[C@@H](OC(=O)Oc1ccncc1)CC2 yielded an IC50 [12] of 560 nM.

OC[C@@H](O)C[C@H]1OCC2(O)c3c(cc(O)c4c3O[C@@H](c3cc(O)c(O)c(O)c3)[C@@H](O)C4)OC12O (some centres undefined) gave an EC50 [2] of 4000 nM and a selectivity ratio [3] of 9.5.

Work on O=c1cc(-c2ccccc2F)[nH]c2ccc(N3CCCC3)cc12 yielded an IC50 [12] of 460 nM.

With Cc1cc2ccc(=O)oc2c2c1OC(C)(C)[C@H](OC(=O)C13CCC(C)(C(=O)O1)C3(C)C)[C@@H]2OC(=O)C12CCC(C)(C(=O)O1)C2(C)C (some centres undefined) the selectivity ratio at 96 h [1] was > 16 and the EC50 [2] was 210 nM.

In the case of Cc1cc(=O)oc2c3c(ccc12)OC(C)(C)[C@H](OC(=O)C12CCC(C)(C(=O)O1)C2(C)C)[C@@H]3OC(=O)C12CCC(C)(C(=O)O1)C2(C)C (some centres undefined), the selectivity ratio at 96 h [1] is reported as > 39 and the EC50 [2] is reported as 6 nM.

In the case of CC1(C)C=C2[C@H]3CC[C@@H]4[C@@]5(C)CCC(=O)C(C)(C)[C@@H]5CC[C@@]4(C)[C@]3(C)CC[C@@]2(C(=O)O)CC1 [MORONIC ACID], the EC50 [2] is reported as < 220 nM and the selectivity ratio [3] is reported as > 186.

CCC1=C(O)c2c(oc(-c3cccc4ccccc34)cc2=O)C(CC)(CC)C1=O [2-(NAPHTHALEN-1-YL)-6,8,8-TRIETHYL DESMOSDUMOTIN B] showed an EC50 (A549) of 0.2 µg/mL (≈ 0.515 µM), an EC50 (1A9) of 0.2 µg/mL (≈ 0.515 µM) and an EC50 (A-431) of 0.2 µg/mL (≈ 0.515 µM). It also gave an EC50 (HCT-8) of 0.2 µg/mL (≈ 0.515 µM), an EC50 (PC-3) of 0.2 µg/mL (≈ 0.515 µM) and an EC50 (KB [4]) of 0.2 µg/mL (≈ 0.515 µM). The EC50 [5] was 0.2 µg/mL (≈ 0.515 µM).

In the case of COC(=O)C[C@@H]1C(=O)CC[C@H](C)C(=O)O[C@@H]2[C@@H]3[C@@H](OC(C)=O)[C@@]45O[C@@]3(C)COC(=O)c3cnccc3[C@@H](C)[C@@H](O)C(=O)O[C@@H]([C@H](OC(C)=O)[C@H](OC(C)=O)[C@@]4(COC1=O)[C@@H]2OC(C)=O)[C@]5(C)O [TRIPTONINE B], the selectivity ratio [3] is reported as > 1000.

Source: ChEMBL document CHEMBL1177695, “Discovery and development of natural product-derived chemotherapeutic agents based on a medicinal chemistry approach” (J Nat Prod, 2010)
